Experimental data: article PMC12155096 (International Journal of Molecular Sciences, 2025)
Counter-ions that a name gives are not always drawn. Like-named read-outs stand apart in the source and are kept apart here.

Columns and labels:
human CYP1A2 [1] = target: T1, human CYP1A2 (Homo sapiens, UniProt P05177); conditions: human
T1 sequence (P05177 1-516): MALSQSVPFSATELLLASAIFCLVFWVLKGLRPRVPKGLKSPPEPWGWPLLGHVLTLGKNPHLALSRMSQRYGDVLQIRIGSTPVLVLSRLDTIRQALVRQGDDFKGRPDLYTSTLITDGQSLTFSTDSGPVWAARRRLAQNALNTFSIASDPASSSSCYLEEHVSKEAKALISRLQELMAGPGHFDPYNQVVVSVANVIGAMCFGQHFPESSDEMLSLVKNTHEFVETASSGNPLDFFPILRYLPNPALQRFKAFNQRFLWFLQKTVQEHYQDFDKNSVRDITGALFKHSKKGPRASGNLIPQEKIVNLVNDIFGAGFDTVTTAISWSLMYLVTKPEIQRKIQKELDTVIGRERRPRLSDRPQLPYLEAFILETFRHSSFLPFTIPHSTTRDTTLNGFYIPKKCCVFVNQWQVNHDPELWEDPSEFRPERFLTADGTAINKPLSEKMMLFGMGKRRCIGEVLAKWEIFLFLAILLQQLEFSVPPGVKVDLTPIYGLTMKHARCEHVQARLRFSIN

human CYP2C19 [2] = target: T2, human CYP2C19 (Homo sapiens, UniProt P33261); test: biochemical
T2 sequence (P33261 whole entry): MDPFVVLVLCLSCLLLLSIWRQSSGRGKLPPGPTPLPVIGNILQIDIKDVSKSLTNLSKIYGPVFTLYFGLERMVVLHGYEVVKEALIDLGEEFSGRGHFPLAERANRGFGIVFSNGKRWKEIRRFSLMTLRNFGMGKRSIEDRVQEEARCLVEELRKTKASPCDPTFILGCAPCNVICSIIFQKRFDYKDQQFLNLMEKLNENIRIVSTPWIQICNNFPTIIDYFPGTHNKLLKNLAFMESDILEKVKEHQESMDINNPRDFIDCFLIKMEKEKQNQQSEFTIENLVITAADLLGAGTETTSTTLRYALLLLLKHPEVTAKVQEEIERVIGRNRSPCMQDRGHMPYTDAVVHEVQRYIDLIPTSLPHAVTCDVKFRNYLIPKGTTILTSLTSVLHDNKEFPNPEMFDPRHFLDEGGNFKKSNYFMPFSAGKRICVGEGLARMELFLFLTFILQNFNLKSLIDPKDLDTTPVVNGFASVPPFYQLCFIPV

human CYP2D6 [3] = target: T3, human CYP2D6 (Homo sapiens, UniProt P10635); test: biochemical
T3 sequence (P10635 whole entry): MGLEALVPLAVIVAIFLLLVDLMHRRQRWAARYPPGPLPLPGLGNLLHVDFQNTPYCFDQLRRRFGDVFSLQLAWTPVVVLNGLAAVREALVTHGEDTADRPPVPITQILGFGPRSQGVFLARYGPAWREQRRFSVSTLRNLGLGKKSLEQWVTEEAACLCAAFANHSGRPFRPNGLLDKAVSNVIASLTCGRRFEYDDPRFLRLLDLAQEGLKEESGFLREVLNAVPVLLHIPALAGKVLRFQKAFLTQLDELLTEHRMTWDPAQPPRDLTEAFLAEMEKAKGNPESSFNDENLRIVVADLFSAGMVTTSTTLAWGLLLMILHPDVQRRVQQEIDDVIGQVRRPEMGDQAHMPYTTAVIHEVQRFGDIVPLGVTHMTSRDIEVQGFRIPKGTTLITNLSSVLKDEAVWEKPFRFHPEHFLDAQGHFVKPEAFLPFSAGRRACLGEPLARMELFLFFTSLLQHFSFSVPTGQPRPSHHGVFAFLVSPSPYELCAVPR

human CYP2C9 [4] = target: T4, human CYP2C9 (Homo sapiens, UniProt P11712); conditions: human
T4 sequence (P11712 whole entry): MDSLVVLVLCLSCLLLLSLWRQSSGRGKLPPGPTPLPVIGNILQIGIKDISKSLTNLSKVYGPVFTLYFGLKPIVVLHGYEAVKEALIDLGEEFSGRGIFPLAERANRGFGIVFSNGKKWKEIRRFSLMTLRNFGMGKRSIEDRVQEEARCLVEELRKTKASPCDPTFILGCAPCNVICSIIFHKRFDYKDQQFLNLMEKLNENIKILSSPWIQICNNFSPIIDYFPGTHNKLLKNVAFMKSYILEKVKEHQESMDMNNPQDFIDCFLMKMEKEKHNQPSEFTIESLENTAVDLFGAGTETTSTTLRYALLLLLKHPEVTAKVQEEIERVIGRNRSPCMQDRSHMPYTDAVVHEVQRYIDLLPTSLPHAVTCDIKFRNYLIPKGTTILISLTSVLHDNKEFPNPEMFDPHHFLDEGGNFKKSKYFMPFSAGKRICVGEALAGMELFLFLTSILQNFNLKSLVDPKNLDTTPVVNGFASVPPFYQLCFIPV

human CYP2C19 [5] = target: T2, human CYP2C19; conditions: human
human CYP1A2 [6] = target: T1, human CYP1A2; test: biochemical
human CYP2D6 [7] = target: T3, human CYP2D6; conditions: human
human CYP2C9 [8] = target: T4, human CYP2C9; test: biochemical
[9] = CYP2C19 IC50 (half-maximal inhibitory concentration)
[10] = CYP2D6 IC50 (half-maximal inhibitory concentration)
[11] = CYP1A2 IC50 (half-maximal inhibitory concentration)
[12] = CYP2C9 IC50 (half-maximal inhibitory concentration)

Row | Structure (SMILES) | IC50 (human CYP2C19 [2]; [9]) [µM] | IC50 (human CYP2D6 [3]; [10]) [nM] | IC50 (human CYP1A2 [6]; [11]) [µM] | IC50 (human CYP2C9 [8]; [12]) [µM] | other results
1 | O=S(=O)(c1ccc(Cl)cc1)c1ccc(Cl)cc1 [4,4'-Dichlorodiphenyl sulfone] | 0.34 | 40600 | 36.2 | 31.4 | CYP1A2 Efficacy (in parenthesis) (human CYP1A2 [1]): 36.17 ± 4.16 (-44 ± 9) %; CYP2C9 Efficacy (in parenthesis) (human CYP2C9 [4]): 31.35 ± 2.66 (-52 ± 4) %; CYP2C19 Efficacy (in parenthesis) (human CYP2C19 [5]): 0.34 ± 0.1 (-146 ± 11) %; CYP2D6 Efficacy (in parenthesis) (human CYP2D6 [7]): 40.58 ± 4.66 (-51 ± 10) %
2 | Cc1[nH]cnc1CN1CCc2c(c3ccccc3n2C)C1=O [Alosetron hydrochloride] | 27.8 | 10800 | 0.89 | 1.66 | –
3 | CCOC(=O)[C@H](CCc1ccccc1)N[C@H]1CCc2ccccc2N(CC(=O)O)C1=O [Benazepril] | 6.84 | 29200 | 14 | 7.32 | –
4 | CC(Cc1cccc(C(F)(F)F)c1)NCCOC(=O)c1ccccc1 (stereo not shown) [Benfluorex hydrochloride] | 6.95 | 80 | 2.6 | 25.3 | –
5 | COc1ccc2cc3[n+](cc2c1OC)CCc1cc2c(cc1-3)OCO2 [Berberine chloride] | 26.9 | 520 | 23.6 | – | –
6 | c1ccc(-c2ccc(C(c3ccccc3)n3ccnc3)cc2)cc1 (stereo not shown) [Bifonazole] | 0.47 | 1820 | 5.3 | 0.25 | CYP1A2 Efficacy (in parenthesis) (human CYP1A2 [1]): 5.3 ± 0.35 (-105 ± 4) %; CYP2C9 Efficacy (in parenthesis) (human CYP2C9 [4]): 0.25 ± 0.05 (-104 ± 3) %; CYP2C19 Efficacy (in parenthesis) (human CYP2C19 [5]): 0.47 ± 0.14 (-136 ± 18) %; CYP2D6 Efficacy (in parenthesis) (human CYP2D6 [7]): 1.82 ± 0.33 (-107 ± 6) %
7 | COc1ccc2c(c1OC)CN1CCc3cc4c(cc3[C@@H]1C2)OCO4 [Canadine] | 1.25 | 260 | 9.1 | 26.4 | –
8 | COC(=O)c1c(Cl)c(Cl)c(C(=O)OC)c(Cl)c1Cl [Chlorthal-dimethyl] | – | – | – | – | AC50 (human CYP2C19 [2]): 21.8 µM; IC50 (human CYP2C19 [2]): 20.7 µM; IC50 (human CYP2D6 [3]): 45000 nM; AC50 (human CYP1A2 [6]): 0.29 µM; IC50 (human CYP1A2 [6]): 0.21 µM; CYP2D6 Efficacy (in parenthesis) (human CYP2D6 [7]; 1 h): 44.96 ± 16.37 (-48 ± 8) %; AC50 (human CYP2C9 [8]): 1.46 µM; IC50 (human CYP2C9 [8]): 1.43 µM
9 | COCCOC(=O)C1=C(C)NC(C)=C(C(=O)OC/C=C/c2ccccc2)C1c1cccc([N+](=O)[O-])c1 (stereo not shown) [Cilnidipine] | 1.75 | 29200 | 15.6 | 0.21 | –
10 | CC(C)(C)C(=O)C(Oc1ccc(Cl)cc1)n1ccnc1 (stereo not shown) [Climbazole] | 1.56 | 28700 | 16.1 | 3.23 | –
11 | CC[N+](CC)(CC(=O)Nc1c(C)cccc1C)Cc1ccccc1 [Denatonium benzoate] | 38.5 | 10 | 38.5 | – | CYP1A2 Efficacy (in parenthesis) (human CYP1A2 [1]): 38.47 ± 2.51 (-59 ± 16) %; CYP2C19 Efficacy (in parenthesis) (human CYP2C19 [5]): 38.47 ± 2.51 (-100 ± 4) %; CYP2D6 Efficacy (in parenthesis) (human CYP2D6 [7]): 0.01 ± 0 (-107 ± 7) %
12 | Clc1ccc(COC(Cn2ccnc2)c2ccc(Cl)cc2Cl)cc1 (stereo not shown) [Econazole nitrate] | 0.15 | 400 | 1.18 | – | CYP1A2 Efficacy (in parenthesis) (human CYP1A2 [1]): 1.18 ± 0.6 (-104 ± 2) %; CYP2C19 Efficacy (in parenthesis) (human CYP2C19 [5]): 0.15 ± 0.02 (-152 ± 3) %; CYP2D6 Efficacy (in parenthesis) (human CYP2D6 [7]): 0.4 ± 0.23 (-105 ± 10) %
13 | CCN(CC)CCOc1ccccc1C(=O)CCc1ccccc1 [Etafenone] | – | – | – | – | IC50 (human CYP2C19 [2]): 35.6 ± 11.4 µM; IC50 (human CYP2D6 [3]): 640 ± 80 nM; IC50 (human CYP1A2 [6]): 6.05 ± 1.51 µM
14 | O=C(OCC(O)CO)c1ccccc1Nc1ccnc2c(C(F)(F)F)cccc12 (stereo not shown) [Floctafenine] | – | – | – | – | IC50 (human CYP2C19 [2]): 0.35 µM; IC50 (human CYP2D6 [3]): 23600 ± 7750 nM; IC50 (human CYP1A2 [6]): 2.91 ± 0.17 µM; IC50 (human CYP2C9 [8]): 10.2 ± 0.69 µM
15 | CN1CCN(CCC(=O)N2c3ccccc3Sc3ccc(C(F)(F)F)cc32)CC1 [Ftormetazine] | 27 | 140 | 29.2 | – | –
16 | CC(COc1ccccc1)NC(C)C(O)c1ccc(O)cc1 (stereo not shown) [Isoxsuprine hydrochloride] | 7.99 | 550 | 16.1 | 14.9 | AC50 (human CYP2C19 [2]; CYP2C19 AC50 (half-maximal activity concentration)): 7.99 µM; AC50 (human CYP2D6 [3]; CYP2D6 AC50 (half-maximal activity concentration)): 550 nM; AC50 (human CYP1A2 [6]; CYP1A2 AC50 (half-maximal activity concentration)): 16.1 µM; AC50 (human CYP2C9 [8]; CYP2C9 AC50 (half-maximal activity concentration)): 14.9 µM
17 | COc1c2occc2c(OC)c2c(=O)cc(C)oc12 [Khellin] | 6.65 | 14500 | 0.15 | 14.4 | –
18 | CCOC(=O)C1=C(C)NC(C)=C(C(=O)OCC)C1c1ccccc1/C=C/C(=O)OC(C)(C)C [Lacidipine] | 6.72 | 15700 | 23.9 | 1.29 | –
19 | N#C/C(=C1/SCC(c2ccccc2Cl)S1)n1ccnc1 (stereo not shown) [Lanoconazole] | – | – | – | – | IC50 (human CYP2C19 [2]): 0.12 ± 0.05 µM; IC50 (human CYP2D6 [3]): 2580 ± 460 nM; IC50 (human CYP1A2 [6]): 0.87 ± 0.1 µM; CYP2D6 Efficacy (in parenthesis) (human CYP2D6 [7]; 1 h): 2.58 ± 0.46 (-102 ± 1) %; IC50 (human CYP2C9 [8]): 2.77 ± 0.32 µM
